Assay results reported in the supplement of paper PMC12317010.
Where a name gives a salt, the structure may show the parent alone.

Experiment: collision cross section in nitrogen (drift tube, single-field); higher = larger gas-phase ion size
[1] = ion type: [M+H], ion source: ESI, ion mode: Positive
[2] = ion type: [M+Na], ion source: ESI, ion mode: Positive
[3] = ion type: [M+H], ion source: APCI, ion mode: Positive
[4] = ion type: [M-H], ion source: ESI, ion mode: Negative
[5] = ion type: [M+], ion source: APCI, ion mode: Positive
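Further: chemical standards at 10 µM analysed by drift tube IMS-QTOF MS in about 3.95 torr nitrogen, mean of duplicate injections differing ≤1%, mass error below 10 ppm.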

SMILES	collision cross section in nitrogen [1] [Å²]	collision cross section in nitrogen [2] [Å²]	collision cross section in nitrogen [3] [Å²]	collision cross section in nitrogen [4] [Å²]	other results
CCOP(=O)(CCP(=O)(OCC)OCC)OCC [Tetraethyl ethylenebisphosphonate]	161.1	172.3	–	–	–
CCCCOC(=O)C(C)Oc1ccc(Oc2ccc(C(F)(F)F)cn2)cc1 (stereo not drawn) [Fluazifop-butyl]	195.1	194.4	195.5	188.7	–
C[Si](Cn1cncn1)(c1ccc(F)cc1)c1ccc(F)cc1 [Flusilazole]	174.9	–	176.6	–	–
Oc1c(O)c(Cl)c(Cl)c(Cl)c1Cl [Tetrachlorocatechol]	–	–	–	135.1	–
CCn1nc(C)c2c1C(=O)NCC(c1ccc(O)cc1)=N2	170.3	–	170.8	172.9	–
C[C@](N)(Cc1ccc(O)c(O)c1)C(=O)O [Methyldopa sesquihydrate]	149.6	–	–	–	–
Cc1ccc2nc(-c3ccc(N)cc3)sc2c1S(=O)(=O)O [2-(4-Aminophenyl)-6-methylbenzothiazole sulfonic acid]	171.7	185.9	–	174.2	–
O=C(O)c1ccc(C(=O)O)cc1 [Terephthalic acid]	–	–	–	134	–
Oc1cc(O)cc(O)c1 [1,3,5-Trihydroxybenzene dihydrate]	–	–	–	121.6	–
O=c1[nH]c(=O)c2[nH]c(=O)[nH]c2[nH]1 [Uric acid]	–	–	–	126.4	–
C=CC(=O)N1CN(C(=O)C=C)CN(C(=O)C=C)C1 [Hexahydro-1,3,5-tris(1-oxoallyl)-1,3,5-triazine]	–	160.1	–	–	–
c1ccc2c(c1)CCN2 [Indoline]	–	–	120.8	–	–
CCOC(=O)[C@@H](C)Oc1ccc(Oc2nc3ccc(Cl)cc3o2)cc1 [Fenoxaprop-P-ethyl]	189.5	189	189.9	–	–
C#C[C@]1(O)CC[C@H]2[C@@H]3CCc4cc(O)ccc4[C@H]3CC[C@@]21C [17alpha-Ethinylestradiol]	–	–	–	182.3	–
O=S1(=O)OCC2C(CO1)C1(Cl)C(Cl)=C(Cl)C2(Cl)C1(Cl)Cl (stereo not drawn) [Endosulfan sulfate]	–	–	–	173.3	–
CC(C)Nc1ccc(NC(C)C)c2c1C(=O)c1ccccc1C2=O [1,4-Bis(N-isopropylamino)anthraquinone]	179.4	–	179.1	–	collision cross section in nitrogen [5]: 178.2 Å²
C=CC(=O)NC(C)(C)CC(C)=O [Diacetone acrylamide]	–	145.2	–	–	–
CCCCCCCC/C=C\CCCCCCCC(=O)OC[C@@H](O)[C@H]1OC[C@H](O)[C@H]1O [Sorbitan, mono-(9Z)-9-octadecenoate]	–	211.8	–	207.7	–
Cc1ccc(C)c(O)c1C [2,3,6-Trimethylphenol]	–	–	–	130.9	–
O=C1CCCCCCCCCCCN1 [Azacyclotridecan-2-one]	148.8	–	148.2	–	–
CC(C)COC(=O)c1ccccc1C(=O)OCC(C)C [Diisobutyl phthalate]	–	181.8	–	–	–

SMILES	collision cross section in nitrogen [1] [Å²]	collision cross section in nitrogen [2] [Å²]	collision cross section in nitrogen [3] [Å²]	collision cross section in nitrogen [4] [Å²]	other results
Cc1cccc(Nc2ccccc2)c1 [3-Methyl-N-phenylaniline]	143.6	–	143.2	–	collision cross section in nitrogen [5]: 139.3 Å²
CCCCCCCC[N+](C)(C)Cc1ccccc1 [Benzalkonium chloride C8 (BAC C8)]	–	–	–	–	collision cross section in nitrogen (ion source: APCI, ion mode: Positive, ion type: [M]+ (permanent cation)): 170.1 Å²; collision cross section in nitrogen (ion source: ESI, ion mode: Positive, ion type: [M]+ (permanent cation)): 171.3 Å²
CC(O)COC(C)COC(C)CO (stereo not drawn) [Tripropylene glycol]	–	144.9	–	–	–
CC(C)CCCCCCCOC(=O)c1ccccc1C(=O)OCCCCCCCC(C)C	–	225.8	–	–	–
COc1cc(O)c(C(=O)c2ccccc2)cc1S(=O)(=O)O [Sulisobenzone hydrate]	–	–	–	167.7	–
CNC(=O)ON=C(CSC)C(C)(C)C	–	160.6	–	–	–
CC1(C)CC(N)CC(C)(CN)C1 (stereo not drawn) [Isophorone diamine]	142.3	–	–	–	–
Clc1ccc(-c2nc3sccn3c2/C=N/OCc2ccc(Cl)c(Cl)c2)cc1 [CITCO]	200.2	–	200.6	199	–
CCN(CC)c1ccc2c(c1)Oc1cc(N(CC)CC)ccc1C21OC(=O)c2ccccc21 [C.I. Solvent Red 49]	218.5	230.2	217.9	–	–
CCOC(=O)Cn1c(=O)sc2cccc(Cl)c21 [Benazolin-ethyl]	–	165.4	–	–	–
CCCCCCCC(=O)OC [Methyl octanoate]	–	–	–	146.7	–
CCN(CC)C(=O)C(C)Oc1cccc2ccccc12 (stereo not drawn) [Napropamide]	164.2	172	163.8	–	–
O=C(O)c1ccccc1C(=O)O [Monopotassium phthalate]	–	–	–	127.6	–
CSc1ccc(C(=O)C(C)(C)N2CCOCC2)cc1 [2-Methyl-4'-(methylthio)-2-morpholinopropiophenone]	166.7	–	166.4	–	–
CCCCCCOc1ccc(N)cc1 [4-Hexyloxyaniline]	167.4	–	168	–	–
O=c1c(O)c(-c2ccc(O)cc2O)oc2cc(O)cc(O)c12 [Morin hydrate]	–	–	–	164.1	–
Oc1c(I)cc(I)cc1I [2,4,6-Triiodophenol]	–	–	–	143.5	collision cross section in nitrogen [5]: 139.5 Å²
O=c1[nH]c(=O)c2c[nH]nc2[nH]1 [Oxypurinol]	–	–	–	122.3	–
O=C(Nc1ccccc1)c1cc(Cl)ccc1O [5-Chlorosalicylanilide]	–	–	–	151.9	–
CCCCCCCCc1ccc(S(=O)(=O)O)cc1 [Sodium 4-octylbenzenesulfonate]	–	–	–	173.9	–
Cc1cccc2sc3nncn3c12 [2,7,8,9-Tricyclazole]	134	153.5	136.3	–	–

SMILES	collision cross section in nitrogen [1] [Å²]	collision cross section in nitrogen [2] [Å²]	collision cross section in nitrogen [3] [Å²]	collision cross section in nitrogen [4] [Å²]	other results
C[CH2][Hg][S]c1ccccc1C(=O)O [Thimerosal]	–	–	–	146.9	–
CC(C)c1ccc(NC(=O)N(C)C)cc1 [Isoproturon]	152.1	158.8	152.9	155.4	–
CCCCOC(=O)[C@@H](C)Oc1ccc(Oc2ccc(C(F)(F)F)cn2)cc1	195.5	194.5	–	–	–
C=CCOCC(CC)(CO)COCC=C [2,2-Bis[(prop-2-en-1-yloxy)methyl]butan-1-ol]	–	150	–	–	–
CN(C)C(=O)Nc1ccc(Cl)c(Cl)c1 [Diuron]	150.9	–	151.3	147.5	–
O=C1CCCCCN1SSN1CCCCCC1=O [1,1'-Disulfanediyldiazepan-2-one]	–	168.7	–	–	–
CCOC(=O)COc1ccc2c(c1)CC(NCC(O)c1cccc(Cl)c1)CC2 (stereo not drawn)	192.2	198.6	192.3	194.5	–
C#CCOC(=O)[C@@H](C)Oc1ccc(Oc2ncc(Cl)cc2F)cc1 [Clodinafop-propargyl]	178	176.2	–	–	–
COC(=O)CCSCCC(=O)OC [Dimethyl 3,3'-thiodipropionate]	–	146.5	–	–	–
O=C(NCO)NCO [1,3-Dimethylolurea]	–	151.7	–	–	–
O=C(N[C@H]1CN2CCC1CC2)c1cc2ccoc2cn1 [(R)-N-(Quinuclidin-3-yl)furo(2,3-C)pyridine-5-carboxamide]	168	181	168.1	172.1	–
CCCCCCCCOC(=O)/C=C\C(=O)OCCCCCCCC [2-Butenedioic acid (2Z)-, dioctyl ester]	–	206.4	–	–	–
COc1cc2c(cc1OC)[C@@]13CCN4CC5=CCO[C@H]6CC(=O)N2[C@H]1[C@H]6[C@H]5C[C@H]43 [Brucine]	194.1	204.6	191.3	–	–
CCNc1nc(Cl)nc(NCC)n1 [Simazine]	144	–	143.3	–	–
Cc1ccc(C(C)C)cc1O [Isopropyl-o-cresol]	–	–	–	136.9	–
Cc1cc(C(C)(C)c2cc(C)c(O)c(C)c2)cc(C)c1O [4,4'-Propane-2,2-diylbis(2,6-dimethylphenol)]	–	–	–	182.9	–
O=C1c2ccccc2C(=O)C1C(=O)C(c1ccccc1)c1ccc(Cl)cc1 (stereo not drawn) [Chlorophacinone]	–	–	–	193.2	–
CC(=O)c1ccc(N)cc1 [4-Aminoacetophenone]	–	–	–	125	–
CC(=O)[C@@]1(O)CC[C@H]2[C@@H]3C[C@H](C)C4=CC(=O)C=C[C@]4(C)[C@@]3(F)[C@@H](O)C[C@@]21C [Fluorometholone]	–	211.3	186.6	–	–
O=C1OC(c2ccc(O)cc2)(c2ccc(O)cc2)c2ccccc21 [Phenolphthalein]	173.9	191.8	173.8	176.2	–
COc1ccc([C@@H]2Sc3ccccc3N(CCN(C)C)C(=O)[C@@H]2OC(C)=O)cc1 [Diltiazem hydrochloride]	197.8	203.2	–	–	–
